In patent US20060014938A1, “Stable aqueous colloidal lanthanide oxides” (priority 2004, published 2006):
Each block holds one compound with its values, some of them ahead of it.

Legend:
[1] = Source text: Table 1 summarizes characteristics of gadolinium DTPA (a previously described MRI contrast agent) and of compositions that are gadolinium oxide complexed with reduced dextran as provided herein, comparing characteristics of these to an ideal vascular contrast agent.
[2] = MRI of tubes using a T1 pulse sequence; settings: 1.0 and 0.1 nM Gd, same molar concentrations
Method: Colloidal gadolinium Oxide prepared according to Example 9, and Gadolinium DTPA, each at a concentration of each of 1.0 and 0.1 nM Gd, were added to a volume of 1 mL in a 2 mL screw cap plastic tube, and were subjected to MRI using a T1 pulse sequence.
Row 3 is water, a negative control.

mice = settings: cited from earlier work
[3] = tested on: pig mesenchymal stem cells (MSC); assay: Cell viability test; format: cell-based
Method: FIG. 1 is a set of photomicrographs showing results from a cell viability test using Pig MSCs.
In all experiments colloid was incubated with cells in growth medium for 12 hours (at a concentration of 1 mg Eu/mL) which was then washed away.

[4] = Size and aqueous stability of colloid after crosslinking or surface modification; format: physicochemical
Method: The dextran covered lanthanide colloid was prepared according to Example 6 except that lanthanum chloride was substituted for samarium chloride. In a fume hood, to 40 mL of colloid was added 100 mL of 5M NaOH, 40 mL distilled water and 40 mL epichlorohydrin. The mixture was incubated at room temperature for about 24 hours with shaking to promote interaction of the organic phase (epichlorohydrin) and aqueous phase which includes the dextran covered colloid. Epichlorohydrin was removed by placing the colloid in a dialysis bag and dialyzing against 20 changes of distilled water of 20 liters each. After dialysis, the product was filtered through a 0.2 micron filter and stored at 4° C. The size and aqueous stability of the colloid suspension were unaffected by this treatment.
The reduced dextran covered colloid was prepared essentially according to Example 10 except that lutetium chloride was substituted for gadolinium chloride. In a fume hood, to 40 mL of colloid was added 100 mL of 5M NaOH, 40 mL of distilled water and 40 mL of epichlorohydrin. The mixture was incubated at room temperature for about 24 hours with shaking to promote interaction of the organic phase (epichlorohydrin) and aqueous phase which includes the dextran covered colloid. Epichlorohydrin was removed by placing the colloid in a dialysis bag and dialyzing against 5 changes of distilled water of 4 liters each. […]

- Autoclavable without excipients [1]: Yes
Compound: O=C([O-])CN(CCN(CC(=O)[O-])CC(=O)[O-])CCN(CC(=O)[O-])CC(=O)[O-].[Gd+3] [Gadolinium DTPA]
- Non toxic at vast excess [1]: Yes
- potency as contrast agent (T1 weighted image) [2]: equally potent

Compound: [Cl][Gd]([Cl])[Cl] [gadolinium chloride]
- most common lesions after injection (mice): mineral emboli in capillaries, accumulation of mineral in the mononuclear phagocytic system, hepatocellular necrosis, and lymphoid depletion, necrosis and mineralisation in the spleen

Compound: C[CH2][Hg][S]c1ccccc1C(=O)[O-].[Na+] [thimerasol]
- state of cells (FIG. 1 Panel C) ([3]; added to growth medium, after 24 hours): severe deterioration
- time to cell death ([3]; positive control): less than 24 hours

- size and aqueous stability of the colloid suspension after the treatment [4]: unaffected
Compound: Gadolinium Oxide Colloid Modified with Biotin [Example 22]
